Laboratory results: patent US12479847B2 (DANA-FARBER CANCER INSTITUTE, INC., priority 2019, dated 2025)

Columns and labels:
Assay in all cases: KINOMEscan (ScanMAX) kinase profiling
Type in all cases: binding
[1] = target: T1, panel of 468 kinases (Homo sapiens, UniProt P08581, M1250T); conditions: MET(M1250T); 1 μM; read-out: % control
T1 construct: purchased KINOMEscan (ScanMAX) service

[2] = target: T2, panel of 468 kinases (Homo sapiens, UniProt Q00535); conditions: CDK5; 1 μM; read-out: % control
T2 construct: purchased KINOMEscan (ScanMAX) service
T2 sequence (Q00535 whole entry): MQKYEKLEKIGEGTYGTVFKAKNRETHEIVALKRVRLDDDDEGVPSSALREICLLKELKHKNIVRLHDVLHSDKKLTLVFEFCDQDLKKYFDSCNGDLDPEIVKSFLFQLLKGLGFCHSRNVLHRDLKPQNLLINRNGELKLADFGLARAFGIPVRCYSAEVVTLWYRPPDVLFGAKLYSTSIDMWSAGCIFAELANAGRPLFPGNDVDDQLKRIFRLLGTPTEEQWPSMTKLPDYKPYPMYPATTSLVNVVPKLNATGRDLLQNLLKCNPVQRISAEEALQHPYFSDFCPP

[3] = target: T3, panel of 468 kinases (Homo sapiens, UniProt Q07002); conditions: PCTK3; 1 μM; read-out: % control
T3 construct: purchased KINOMEscan (ScanMAX) service
T3 sequence (Q07002 whole entry): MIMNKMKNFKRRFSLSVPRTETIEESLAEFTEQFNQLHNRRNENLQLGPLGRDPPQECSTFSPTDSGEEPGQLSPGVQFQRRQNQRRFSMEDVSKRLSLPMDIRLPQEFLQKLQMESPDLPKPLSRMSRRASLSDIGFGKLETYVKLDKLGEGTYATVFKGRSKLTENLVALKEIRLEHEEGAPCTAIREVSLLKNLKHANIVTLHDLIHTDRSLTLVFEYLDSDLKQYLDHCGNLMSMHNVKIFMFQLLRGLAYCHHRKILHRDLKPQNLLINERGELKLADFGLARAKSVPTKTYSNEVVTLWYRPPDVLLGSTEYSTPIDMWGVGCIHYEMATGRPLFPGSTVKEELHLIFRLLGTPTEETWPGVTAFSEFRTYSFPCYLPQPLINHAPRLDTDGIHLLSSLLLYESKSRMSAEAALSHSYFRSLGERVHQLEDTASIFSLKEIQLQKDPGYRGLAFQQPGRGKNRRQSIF

[4] = target: T4, panel of 468 kinases (Homo sapiens, UniProt Q13546); conditions: RIPK1; 1 μM; read-out: % control
T4 construct: purchased KINOMEscan (ScanMAX) service
T4 sequence (Q13546 1-671): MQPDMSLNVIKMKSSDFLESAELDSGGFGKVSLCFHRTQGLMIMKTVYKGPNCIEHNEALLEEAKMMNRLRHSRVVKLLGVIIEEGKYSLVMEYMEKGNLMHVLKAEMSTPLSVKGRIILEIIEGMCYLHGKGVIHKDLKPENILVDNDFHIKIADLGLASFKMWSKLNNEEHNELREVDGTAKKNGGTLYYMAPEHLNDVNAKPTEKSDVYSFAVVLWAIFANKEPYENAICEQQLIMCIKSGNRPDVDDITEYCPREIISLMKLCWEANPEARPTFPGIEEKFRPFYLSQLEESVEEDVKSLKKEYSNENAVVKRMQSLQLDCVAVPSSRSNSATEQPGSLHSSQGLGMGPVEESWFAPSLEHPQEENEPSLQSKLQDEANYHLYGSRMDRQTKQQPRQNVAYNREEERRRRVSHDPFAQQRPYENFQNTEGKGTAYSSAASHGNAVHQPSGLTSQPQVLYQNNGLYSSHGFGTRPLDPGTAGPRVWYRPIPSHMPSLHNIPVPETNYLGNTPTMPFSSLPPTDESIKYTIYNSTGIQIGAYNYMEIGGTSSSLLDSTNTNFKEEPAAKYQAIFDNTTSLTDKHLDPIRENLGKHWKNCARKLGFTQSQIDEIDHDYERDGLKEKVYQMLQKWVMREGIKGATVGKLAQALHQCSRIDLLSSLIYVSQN

[5] = target: T5, panel of 468 kinases (Homo sapiens, UniProt Q5VT25); conditions: MRCKA; 1 μM; read-out: % control
T5 construct: purchased KINOMEscan (ScanMAX) service
T5 sequence (Q5VT25 whole entry): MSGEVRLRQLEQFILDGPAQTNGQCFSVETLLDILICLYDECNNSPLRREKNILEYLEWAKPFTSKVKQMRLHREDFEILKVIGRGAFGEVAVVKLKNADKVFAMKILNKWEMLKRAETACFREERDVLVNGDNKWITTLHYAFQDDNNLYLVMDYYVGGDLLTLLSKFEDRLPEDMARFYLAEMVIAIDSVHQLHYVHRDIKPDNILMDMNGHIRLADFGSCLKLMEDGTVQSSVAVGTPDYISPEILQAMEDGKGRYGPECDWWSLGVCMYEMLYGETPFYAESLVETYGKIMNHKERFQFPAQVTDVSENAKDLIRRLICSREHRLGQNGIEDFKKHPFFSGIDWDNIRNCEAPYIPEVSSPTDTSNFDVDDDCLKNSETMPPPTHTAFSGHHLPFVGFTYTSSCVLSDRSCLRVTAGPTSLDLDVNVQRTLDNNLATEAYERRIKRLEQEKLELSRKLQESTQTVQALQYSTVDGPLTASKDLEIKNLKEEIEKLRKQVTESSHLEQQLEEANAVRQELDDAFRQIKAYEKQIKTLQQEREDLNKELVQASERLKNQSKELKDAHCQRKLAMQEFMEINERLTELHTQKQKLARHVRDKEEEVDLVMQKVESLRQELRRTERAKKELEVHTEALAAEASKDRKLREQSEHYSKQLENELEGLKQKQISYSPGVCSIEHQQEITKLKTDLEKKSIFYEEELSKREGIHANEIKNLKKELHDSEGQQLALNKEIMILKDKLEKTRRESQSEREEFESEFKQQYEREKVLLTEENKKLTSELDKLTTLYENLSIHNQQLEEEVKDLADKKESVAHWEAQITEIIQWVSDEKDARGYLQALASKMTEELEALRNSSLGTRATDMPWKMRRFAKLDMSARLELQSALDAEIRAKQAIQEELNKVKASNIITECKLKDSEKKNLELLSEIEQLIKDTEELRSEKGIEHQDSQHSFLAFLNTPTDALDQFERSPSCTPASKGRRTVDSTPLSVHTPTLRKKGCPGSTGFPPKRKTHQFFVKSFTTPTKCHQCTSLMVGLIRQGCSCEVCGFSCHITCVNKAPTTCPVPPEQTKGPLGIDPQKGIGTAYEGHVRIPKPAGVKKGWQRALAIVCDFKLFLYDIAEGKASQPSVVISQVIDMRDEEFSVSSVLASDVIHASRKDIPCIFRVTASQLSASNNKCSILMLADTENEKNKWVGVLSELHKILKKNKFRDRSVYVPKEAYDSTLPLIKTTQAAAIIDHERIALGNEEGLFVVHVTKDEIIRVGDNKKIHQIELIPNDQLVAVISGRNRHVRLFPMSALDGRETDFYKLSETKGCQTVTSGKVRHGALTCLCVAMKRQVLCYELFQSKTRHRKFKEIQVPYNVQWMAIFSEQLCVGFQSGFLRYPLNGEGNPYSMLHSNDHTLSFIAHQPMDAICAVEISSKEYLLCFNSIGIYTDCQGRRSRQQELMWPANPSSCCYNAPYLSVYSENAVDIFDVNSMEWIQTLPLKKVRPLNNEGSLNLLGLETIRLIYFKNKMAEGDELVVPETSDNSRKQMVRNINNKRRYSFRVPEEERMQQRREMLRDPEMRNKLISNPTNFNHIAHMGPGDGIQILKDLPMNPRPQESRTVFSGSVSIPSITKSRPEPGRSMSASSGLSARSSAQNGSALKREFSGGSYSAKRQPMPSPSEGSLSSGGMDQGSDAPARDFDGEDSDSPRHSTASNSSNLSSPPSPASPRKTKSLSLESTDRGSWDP

[6] = target: T6, panel of 468 kinases (Homo sapiens, UniProt Q6P3R8); conditions: NEK5; 1 μM; read-out: % control
T6 construct: purchased KINOMEscan (ScanMAX) service
T6 sequence (Q6P3R8 1-708): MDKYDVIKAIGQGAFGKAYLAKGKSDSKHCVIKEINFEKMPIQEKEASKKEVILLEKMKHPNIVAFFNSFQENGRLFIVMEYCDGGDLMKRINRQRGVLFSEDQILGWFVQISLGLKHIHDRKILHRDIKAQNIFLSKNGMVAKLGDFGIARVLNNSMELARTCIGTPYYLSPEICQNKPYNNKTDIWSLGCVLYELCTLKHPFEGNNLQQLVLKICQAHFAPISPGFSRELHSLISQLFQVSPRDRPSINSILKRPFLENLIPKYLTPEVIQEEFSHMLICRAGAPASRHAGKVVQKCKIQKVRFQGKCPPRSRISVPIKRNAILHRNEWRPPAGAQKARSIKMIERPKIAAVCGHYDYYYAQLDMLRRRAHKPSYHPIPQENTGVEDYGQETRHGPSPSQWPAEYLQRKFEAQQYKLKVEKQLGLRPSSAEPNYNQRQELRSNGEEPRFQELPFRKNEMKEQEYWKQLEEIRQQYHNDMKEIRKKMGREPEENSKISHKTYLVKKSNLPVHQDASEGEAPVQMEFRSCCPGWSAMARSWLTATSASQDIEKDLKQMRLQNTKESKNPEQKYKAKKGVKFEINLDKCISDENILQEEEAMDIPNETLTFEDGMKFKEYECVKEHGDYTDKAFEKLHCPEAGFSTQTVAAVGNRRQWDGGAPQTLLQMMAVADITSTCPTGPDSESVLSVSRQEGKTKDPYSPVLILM

[7] = target: T7, panel of 468 kinases (Homo sapiens, UniProt Q8IVH8); conditions: MAP4K3; 1 μM; read-out: % control
T7 construct: purchased KINOMEscan (ScanMAX) service
T7 sequence (Q8IVH8 1-894): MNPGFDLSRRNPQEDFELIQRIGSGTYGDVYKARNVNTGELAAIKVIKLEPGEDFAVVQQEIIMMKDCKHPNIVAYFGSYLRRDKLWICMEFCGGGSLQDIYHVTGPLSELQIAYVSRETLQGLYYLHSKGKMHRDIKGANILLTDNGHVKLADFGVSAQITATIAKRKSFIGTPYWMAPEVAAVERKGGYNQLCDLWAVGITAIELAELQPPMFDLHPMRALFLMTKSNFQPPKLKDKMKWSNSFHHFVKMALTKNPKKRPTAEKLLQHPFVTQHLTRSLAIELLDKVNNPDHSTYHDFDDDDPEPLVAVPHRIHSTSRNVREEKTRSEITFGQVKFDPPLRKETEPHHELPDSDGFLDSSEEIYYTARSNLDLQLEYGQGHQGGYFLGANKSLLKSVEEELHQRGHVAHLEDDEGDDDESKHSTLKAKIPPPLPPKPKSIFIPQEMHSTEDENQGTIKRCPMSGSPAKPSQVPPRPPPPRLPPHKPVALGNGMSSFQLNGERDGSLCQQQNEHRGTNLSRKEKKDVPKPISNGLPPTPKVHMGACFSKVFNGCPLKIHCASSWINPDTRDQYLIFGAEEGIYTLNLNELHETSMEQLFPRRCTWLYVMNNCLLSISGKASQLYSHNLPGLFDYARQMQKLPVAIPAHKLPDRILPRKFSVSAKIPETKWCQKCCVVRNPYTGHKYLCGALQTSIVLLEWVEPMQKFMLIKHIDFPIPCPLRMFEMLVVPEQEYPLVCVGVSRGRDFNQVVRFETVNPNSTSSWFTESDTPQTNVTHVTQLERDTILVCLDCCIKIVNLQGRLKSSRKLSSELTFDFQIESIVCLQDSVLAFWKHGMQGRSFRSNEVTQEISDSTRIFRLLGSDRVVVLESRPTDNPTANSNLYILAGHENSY

T1 sequence (P08581 25-1390 M1250T): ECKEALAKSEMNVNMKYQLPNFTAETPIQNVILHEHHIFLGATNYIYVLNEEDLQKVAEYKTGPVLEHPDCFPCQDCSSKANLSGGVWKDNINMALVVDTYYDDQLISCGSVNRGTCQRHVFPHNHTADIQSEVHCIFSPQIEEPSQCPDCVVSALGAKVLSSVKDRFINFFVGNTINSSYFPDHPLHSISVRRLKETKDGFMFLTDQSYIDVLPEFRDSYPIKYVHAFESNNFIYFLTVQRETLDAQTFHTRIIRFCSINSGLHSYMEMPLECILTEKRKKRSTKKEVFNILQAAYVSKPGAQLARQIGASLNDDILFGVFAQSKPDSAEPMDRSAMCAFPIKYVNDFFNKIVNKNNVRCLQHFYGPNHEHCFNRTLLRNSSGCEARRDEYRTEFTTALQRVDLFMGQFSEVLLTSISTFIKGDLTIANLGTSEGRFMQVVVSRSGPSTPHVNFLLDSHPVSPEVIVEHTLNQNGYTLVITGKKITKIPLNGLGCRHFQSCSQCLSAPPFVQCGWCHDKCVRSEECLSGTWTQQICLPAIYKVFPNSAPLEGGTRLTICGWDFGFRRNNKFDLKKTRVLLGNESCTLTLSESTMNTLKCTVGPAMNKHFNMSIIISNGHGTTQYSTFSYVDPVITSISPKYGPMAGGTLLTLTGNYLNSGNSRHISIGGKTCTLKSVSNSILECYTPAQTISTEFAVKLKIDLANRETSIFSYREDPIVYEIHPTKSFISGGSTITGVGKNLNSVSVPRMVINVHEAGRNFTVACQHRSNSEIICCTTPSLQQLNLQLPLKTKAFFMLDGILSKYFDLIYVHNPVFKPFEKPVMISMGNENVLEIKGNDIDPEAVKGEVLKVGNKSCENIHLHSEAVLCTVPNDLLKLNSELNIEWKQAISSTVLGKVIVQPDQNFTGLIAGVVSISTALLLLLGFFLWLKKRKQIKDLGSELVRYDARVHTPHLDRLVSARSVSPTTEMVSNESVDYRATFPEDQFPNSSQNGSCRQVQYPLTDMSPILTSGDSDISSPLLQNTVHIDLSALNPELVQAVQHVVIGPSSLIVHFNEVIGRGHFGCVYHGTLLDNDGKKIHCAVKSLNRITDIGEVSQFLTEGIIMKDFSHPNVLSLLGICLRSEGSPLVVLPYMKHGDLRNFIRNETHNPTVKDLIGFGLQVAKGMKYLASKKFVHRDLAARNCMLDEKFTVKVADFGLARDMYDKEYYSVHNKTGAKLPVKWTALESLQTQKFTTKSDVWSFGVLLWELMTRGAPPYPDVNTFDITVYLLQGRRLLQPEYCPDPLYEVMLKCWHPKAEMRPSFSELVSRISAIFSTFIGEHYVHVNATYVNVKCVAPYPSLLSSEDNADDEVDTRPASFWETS

Structure (SMILES)	remaining binding at 1 µM [1] [%]	remaining binding at 1 µM [2] [%]	remaining binding at 1 µM [3] [%]	remaining binding at 1 µM [4] [%]	remaining binding at 1 µM [5] [%]	remaining binding at 1 µM [6] [%]	remaining binding at 1 µM [7] [%]
CNc1nc(Nc2ccc(C(=O)N3CCC(N4CCOCC4)CC3)c3c2OCO3)nc2[nH]cc(Cl)c12 [Compound 75, (7-((5-chloro-4-(methylamino)-7H-pyrrolo[2,3-d]pyrimidin-2-yl)amino)benzo[d][1,3]dioxol-4-yl)(4-morpholinopiperidin-1-yl)methanone]	100	100	100	89	100	97	81
CNc1nc(Nc2ccc(S(=O)(=O)N3CCC(N4CCOCC4)CC3)cc2OC)nc2[nH]cc(Cl)c12 [Compound 12, 5-chloro-N2-(2-methoxy-4-((4-morpholinopiperidin-1-yl)sulfonyl)phenyl)-N4-methyl-7H-pyrrolo[2,3-d]pyrimidine-2,4-diamine]	100	100	100	92	100	100	98
CNc1nc(Nc2ccc(P3(=O)CCN(C4CCOCC4)CC3)cc2OC)nc2[nH]cc(Cl)c12 [Compound 77, 4-(4-((5-chloro-4-(methylamino)-7H-pyrrolo[2,3-d]pyrimidin-2-yl)amino)-3-methoxyphenyl)-1-(tetrahydro-2H-pyran-4-yl)-1,4-azaphosphinane 4-oxide]	100	100	100	88	92	98	100
